These results are taken from patent US6867009B2 (priority 1999, dated 2005).

Values joined by “and” are separate entries in the source; they are usually repeats but may differ in a detail not shown here. Identical values can stand only once. Like-named read-outs stand apart in the source and are kept apart here. A value given as a limit tells only on which side of the number the result lay.

In assay [1] the target is T1, rat VR1 (Rattus norvegicus, UniProt O35433).
T1 construct: expressed in transfected cells
Kind of assay: cell-based.

The target of another assay is T2, human capsaicin receptor (Homo sapiens, UniProt Q8NER1, T469I).
T2 construct: expressed in transfected cells; host or cells: HEK 293T (transient, LIPOFECTAMINE; pBK-CMV phagemid clones PT35, PT44)
In kind it is cell-based.

Assay [2] concerns the target T3, short form of human capsaicin receptor (Homo sapiens, UniProt Q8NER1, M315I/P91S/T469I).
T3 construct: expressed in transfected cells; host or cells: HEK 293T (transient, LIPOFECTAMINE; plasmid PT36)
In kind it is cell-based.

In another assay the test system is HEK 293T cells. Type of assay: cell-based, human.
Assay [3] relates to rat dorsal root ganglion neurons. Particulars: cited from earlier work.
Assay [4] deals with T4, rat vanilloid-receptor-like protein 1 (VRL-1) (Rattus norvegicus, UniProt Q9WUD2).
T4 sequence (Q9WUD2 1-761): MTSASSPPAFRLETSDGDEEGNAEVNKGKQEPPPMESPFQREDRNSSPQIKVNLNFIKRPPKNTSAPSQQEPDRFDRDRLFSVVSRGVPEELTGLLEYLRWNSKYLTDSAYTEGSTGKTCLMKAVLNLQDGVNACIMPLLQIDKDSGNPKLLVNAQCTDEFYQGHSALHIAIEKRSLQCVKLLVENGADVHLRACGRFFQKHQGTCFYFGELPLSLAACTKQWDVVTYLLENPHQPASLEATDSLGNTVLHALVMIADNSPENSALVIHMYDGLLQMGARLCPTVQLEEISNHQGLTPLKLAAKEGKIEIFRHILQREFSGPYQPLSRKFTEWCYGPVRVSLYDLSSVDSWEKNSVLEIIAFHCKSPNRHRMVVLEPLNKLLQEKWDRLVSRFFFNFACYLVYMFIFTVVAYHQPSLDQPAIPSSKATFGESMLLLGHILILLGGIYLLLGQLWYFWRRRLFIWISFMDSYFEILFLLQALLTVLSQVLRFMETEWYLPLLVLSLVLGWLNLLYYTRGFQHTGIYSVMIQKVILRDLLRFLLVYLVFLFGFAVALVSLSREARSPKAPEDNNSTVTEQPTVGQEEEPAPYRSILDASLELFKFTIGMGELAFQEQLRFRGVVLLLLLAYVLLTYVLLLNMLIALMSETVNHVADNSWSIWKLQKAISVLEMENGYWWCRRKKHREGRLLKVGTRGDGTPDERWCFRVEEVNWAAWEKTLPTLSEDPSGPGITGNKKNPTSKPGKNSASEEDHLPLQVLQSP
Particulars: cited from earlier work.

In assay [5] the target is T1, rat VR1. Kind of assay: biochemical. In kind it is binding.
Assay [6] deals with T5, native rat vanilloid receptors (Rattus norvegicus, UniProt O35433).
T5 construct: rat DRG membranes expressing native vanilloid receptors; from tissue; host or cells: dorsal root ganglia of female Sprague-Dawley rats, partially purified membrane fraction
Nature of the assay: biochemical. In kind it is binding.

Assay [7] addresses T1, rat VR1. Kind of assay: biochemical. Type of assay: binding. The source holds these as a separate data set.
Assay [8] concerns the target T1, rat VR1. Nature of the assay: cell-based. This is another data set of the same source.
The target in a further assay is T6, VR1 (Rattus norvegicus, UniProt O35433).
T6 construct: host or cells: Xenopus oocytes (A8); VR1-transfected HEK293 cells (A9)
Particulars: cited from earlier work.

In a further assay the target is T7, vanilloid receptor (VR) (Rattus norvegicus, UniProt O35433).
T7 construct: With regard to DRG neurons expressing native VRs this is clearly not the case; host or cells: intact rat dorsal root ganglion neurons
Particulars: cited from earlier work.

[9] abbreviates: read-out: 45Ca2+-uptake (EC50, nM), agonists.
Where [10] appears, read: read-out: EC50 for inducing calcium uptake / influx.
[11] abbreviates: EC50 (potency) of calcium mobilization.
Setting [12] is: Binding affinity (nM), radioligand itself.
Where [13] appears, read: read-out: Ki for inhibition of [3H]RTX binding.

T5 sequence (O35433 whole entry): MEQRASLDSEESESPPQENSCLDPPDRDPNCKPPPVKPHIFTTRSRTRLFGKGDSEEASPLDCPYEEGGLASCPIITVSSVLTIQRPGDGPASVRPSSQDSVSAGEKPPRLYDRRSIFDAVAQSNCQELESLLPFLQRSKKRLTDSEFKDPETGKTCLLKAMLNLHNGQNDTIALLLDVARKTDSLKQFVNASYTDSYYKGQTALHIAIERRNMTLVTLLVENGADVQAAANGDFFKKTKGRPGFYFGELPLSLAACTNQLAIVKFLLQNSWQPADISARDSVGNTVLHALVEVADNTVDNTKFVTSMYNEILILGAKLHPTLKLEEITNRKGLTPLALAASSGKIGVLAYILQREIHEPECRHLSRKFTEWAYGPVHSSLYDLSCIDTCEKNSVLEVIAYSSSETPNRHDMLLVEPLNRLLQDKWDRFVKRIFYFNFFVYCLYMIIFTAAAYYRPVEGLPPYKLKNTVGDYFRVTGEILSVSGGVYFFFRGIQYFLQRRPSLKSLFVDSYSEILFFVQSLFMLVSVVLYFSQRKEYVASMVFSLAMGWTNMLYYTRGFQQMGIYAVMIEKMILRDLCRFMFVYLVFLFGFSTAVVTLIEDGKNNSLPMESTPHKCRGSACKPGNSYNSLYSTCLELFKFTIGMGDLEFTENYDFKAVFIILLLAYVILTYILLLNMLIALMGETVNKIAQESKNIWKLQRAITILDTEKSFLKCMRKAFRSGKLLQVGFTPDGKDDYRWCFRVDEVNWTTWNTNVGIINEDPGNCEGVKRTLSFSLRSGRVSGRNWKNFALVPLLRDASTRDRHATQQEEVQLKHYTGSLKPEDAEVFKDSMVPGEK
T1 sequence (O35433 whole entry): as above
T7 sequence (O35433 whole entry): as above
T2 sequence (Q8NER1 whole entry T469I): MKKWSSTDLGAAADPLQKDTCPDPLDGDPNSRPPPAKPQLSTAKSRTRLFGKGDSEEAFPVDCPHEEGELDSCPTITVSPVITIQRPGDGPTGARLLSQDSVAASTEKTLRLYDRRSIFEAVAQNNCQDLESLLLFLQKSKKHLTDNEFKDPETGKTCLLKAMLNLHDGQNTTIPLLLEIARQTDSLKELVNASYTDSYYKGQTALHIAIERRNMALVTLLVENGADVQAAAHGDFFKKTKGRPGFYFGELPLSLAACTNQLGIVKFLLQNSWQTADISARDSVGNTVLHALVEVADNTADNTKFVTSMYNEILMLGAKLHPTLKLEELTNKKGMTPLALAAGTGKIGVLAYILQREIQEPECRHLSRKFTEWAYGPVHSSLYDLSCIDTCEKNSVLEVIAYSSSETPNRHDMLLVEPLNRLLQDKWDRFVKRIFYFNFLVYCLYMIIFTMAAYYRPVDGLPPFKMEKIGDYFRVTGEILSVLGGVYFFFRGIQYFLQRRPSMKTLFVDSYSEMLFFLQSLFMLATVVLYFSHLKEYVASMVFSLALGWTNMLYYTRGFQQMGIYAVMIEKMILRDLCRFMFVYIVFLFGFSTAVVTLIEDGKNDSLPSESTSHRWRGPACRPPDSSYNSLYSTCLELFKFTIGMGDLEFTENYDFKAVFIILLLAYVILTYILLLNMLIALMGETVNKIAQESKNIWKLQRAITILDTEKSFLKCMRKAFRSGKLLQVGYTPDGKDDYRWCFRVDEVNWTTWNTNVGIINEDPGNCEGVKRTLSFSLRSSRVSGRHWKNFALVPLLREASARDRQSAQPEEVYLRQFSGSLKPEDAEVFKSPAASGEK
T3 sequence (Q8NER1 with tags, fused parts or gaps P91S/M315I/T469I): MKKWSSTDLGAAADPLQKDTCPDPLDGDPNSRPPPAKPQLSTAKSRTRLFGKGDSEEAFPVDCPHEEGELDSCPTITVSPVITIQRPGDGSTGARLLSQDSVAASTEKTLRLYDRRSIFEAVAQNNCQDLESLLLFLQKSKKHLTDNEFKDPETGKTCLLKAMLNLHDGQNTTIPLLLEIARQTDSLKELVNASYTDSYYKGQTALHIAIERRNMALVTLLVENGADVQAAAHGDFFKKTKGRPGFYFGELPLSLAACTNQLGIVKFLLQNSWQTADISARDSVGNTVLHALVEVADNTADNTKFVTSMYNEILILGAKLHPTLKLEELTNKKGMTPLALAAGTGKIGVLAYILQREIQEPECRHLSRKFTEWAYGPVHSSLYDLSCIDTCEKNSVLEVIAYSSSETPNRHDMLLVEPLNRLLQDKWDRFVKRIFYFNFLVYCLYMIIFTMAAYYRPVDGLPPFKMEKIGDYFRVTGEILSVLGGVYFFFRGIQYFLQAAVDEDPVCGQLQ
T6 sequence (O35433 whole entry): as the sequence (O35433 whole entry) above

For the molecule `COc1cc(CNC(=O)CCCC/C=C/C(C)C)ccc1O` [capsaicin], at rat VR1 [1], the “time to peak value of calcium mobilization response” value is at most 1 min. The “Ave Max Response (RFU)” value is 7257 RFU and 5529 RFU at human capsaicin receptor; 805 RFU in assay [2]; 843 RFU with HEK 293T cells. Also, the EC50 in assay [3] (setting [9]) was 340 nM; in [3] (setting [10]), 270 nM. In addition, the “sensitivity of VRL-1” value in assay [4] is recorded as “insensitive”.
By Ki is commonly meant the dissociation constant of the complex between target and ligand, obtained from inhibition or displacement. A word on the IC50: it is the point on the concentration scale where inhibition reaches its midpoint. On to `Oc1cc2c(cc1O)CN(C(=S)NCCc1ccc(Cl)cc1)CCC2` [capsazepine], for which the Ki on rat VR1 [5] (Binding affinity (nM), competing ligands) is 5100 nM; in assay [6], 8600 nM; on rat VR1 [1] (Ca2+-mobilization, Ki value) it was 140 nM and 1100 nM; in [3] (read-out: 45Ca2+-uptake, Ki value) it was 271 nM. Besides, the IC50 at rat VR1 [1] (IC50 for inhibition of capsaicin-evoked calcium mobilization) was 2400 nM and 330 nM.
As for `CC1(C)C[C@H]2C=C(C=O)[C@]3(C=O)C[C@]3(C)[C@H]2C1` [isovelleral], the inhibition constant (Ki) was 18000 nM and 20000 nM at rat VR1 [7] (Ki for inhibition of [3H]RTX binding); 24000 nM in assay [6].
As to `CCCCCCCC/C=C\CCCCCCCC(=O)NCc1ccc(O)c(OC)c1` [olvanil], in assay [6], the affinity corresponds to a Ki of 300 nM. For the same molecule, the EC50 at rat VR1 [1] (Ca2+-mobilization (EC50, nM), agonists) is 216 nM; at rat VR1 [1] (setting [11]) it was 22 nM; in assay [3] (setting [9]), 170 nM.
By Kd is commonly meant the free concentration of one partner at which half of the binding sites on the other are occupied at equilibrium, for simple one-to-one binding. For the molecule `C=C(C)[C@]12C[C@@H](C)[C@@]34O[C@](Cc5ccccc5)(O[C@@H]1[C@@H]3C=C(COC(=O)Cc1ccc(O)c(OC)c1)C[C@]1(O)C(=O)C(C)=C[C@@H]41)O2` [resiniferatoxin, Resiniferatoxin], at rat VR1 [7], the Bmax was 250+/−24 fmol/10^6 cells; the “Hill coefficient, FIG. 1A” value is 1.8; the “Hill number (cooperativity index)” value is 2.1 and 2.1+/−0.2; the “dissociation constant (1st order decay)” value came to 0.12 ± 0.02 min⁻¹. Moreover, on rat VR1 [7], the “maximal receptor density, FIG. 1A” value was 222 fmol per one million cells; the “non-specific binding as share of total binding” value is recorded as “approximately 20%”; the receptor density is reported as 1.5×10^5 binding sites per cell; the “specific binding attained, of its peak value” is “approximately 90%”. The molecule also had a dissociation constant Kd at rat VR1 [7] (Half-maximal binding, FIG. 1A) of 0.056 nM. Further, binding at rat VR1 [7] ([3H]RTX binding affinity (half-maximal binding)) was put at a Kd of 0.084 nM. Further, on rat VR1 [5], the Hill number was 1.8 and 1.9+/−0.1; the maximal receptor density is listed as 470+/−30 fmol/10^6 cells. On rat VR1 [5] (setting [12]), this molecule showed a Kd of 0.13 nM. Moreover, binding at rat VR1 [5] ([3H]RTX binding affinity (Kd)) was characterised by a dissociation constant (Kd) of 0.103 nM. Also, in assay [6], the Bmax is 290+/−10 fmol/mg protein; the “Hill coefficient, FIG. 2” value was 1.5; the “Hill number (cooperativity index)” value is 1.7 and 1.9+/−2; the “maximal receptor density, FIG. 2” value is 302 fmol per one million cells. The molecule also gave a dissociation constant Kd in assay [6] (setting [12]) of 0.07 nM. Moreover, in [6] (Half-maximal binding, FIG. 2), the Kd was 0.06 nM. Besides, the Kd in [6] ([3H]RTX Kd) was 0.07 nM. On rat VR1 [8], this molecule had an EC50 of 4.1 nM. Further, the “time-course of calcium mobilization response” value on rat VR1 [1] was “slowly developing but persistent calcium currents”. The EC50 at rat VR1 [1] (setting [11]) came out at 1.4 nM. In addition, in assay [3] (setting [10]), the EC50 was 1 nM. Moreover, on VR1, the “fold more potent than capsaicin” value was “approximately 20 fold”. Further, the “fold more potent for binding than for inducing calcium uptake” value at vanilloid receptor (VR) is recorded as “approximately 25 fold”. Also, the equilibrium dissociation constant (Kd) on vanilloid receptor (VR) (read-out: Kd of binding) was 0.04 nM.
Regarding `N.N.N.N.N.N.N.N.N.N.N.N.N.N.[Cl-].[Cl-].[Cl-].[Cl-].[Cl-].[Cl-].[O-2].[O-2].[Ru+3].[Ru+3].[Ru+4]` [ruthenium red], the “Binding affinity (nM), competing ligands” value (at rat VR1 [5]; in [6]) was “no effect” in each case. Besides, the IC50 on rat VR1 [1] (read-out: IC50 for prevention of calcium mobilization by capsaicin, n=7) was 210 nM.
`CC(C)=CCC/C(C)=C/CC/C(C)=C/Cc1c(C)c(C=O)c(O)c(O)c1O` [scutigeral]: the Ki on rat VR1 [7] (setting [13]) was 20000 nM and 18000 nM; in [6] (setting [13]) it was 21000 nM.
